# Measured values as given in patent US20110166223A1, “METHODS OF INHIBITING FGFR3 SIGNALING” (CEDARS-SINAI MEDICAL CENTER, priority 2008, published 2011).
# Read-outs that look alike come from different tables or passages of the source.
# What was measured:
# [1] = system: FGF2/FGFR3-mediated extracellular matrix loss in RCS chondrocytes; experiment: [35S]sulfate labeling assay in RCS chondrocytes; assay type: cell-based, rat; conditions: FGF2 5 ng/ml, NF449 20 μM, 72 hours, FIG. 2b
# Description: (§1) For Alcian blue staining, growing RCS cultures were treated with FGF2 (5 ng/ml) alone or in the presence of NF449 (20 μM) for 72 hours, fixed with 4% paraformaldehyde and stained for 30 minutes with Alcian blue. For quantification of the FGF2/FGFR3-mediated extracellular matrix loss, RCS chondrocytes were treated with FGF2 (5 ng/ml) and NF449 (20 μM) for 72 hours in the presence of 10 μCi/ml of [^35S]sulfate (Perkin Elmer, Boston, Mass.). Following the cultivation period, cells were harvested and the incorporated radioactivity was determined by liquid scintillation.
# (§2) Apart from the growth arrest, aberrant FGFR3 signaling in chondrocytes leads to the loss of their extracellular matrix, rich in sulfated proteoglycans, due to inhibition of matrix synthesis as well as degradation of the existing matrix. The inventors therefore evaluated whether NF449 rescues the extracellular matrix loss induced by FGFR3 activation. […] Similar to previous findings, this matrix was lost after the 72-hours of FGF2 treatment. […] To further confirm this observation, cells were incubated with [^35S]sulfate for 72 hours to label the extracellular matrix and determined the effect of FGF2 and NF449 on the cell-bound radioactivity.
# [2] = system: limb growth and size of cultured embryos; experiment: Embryo limb culture; conditions: 30 μM; embryos cultured for six (6) days; FIG. 8
# Source text: FIG. 8, in accordance with an embodiment herein, depicts embryos cultured for six (6) days.
# [3] = system: FGF2-mediated extracellular matrix loss in RCS chondrocytes; experiment: Alcian blue staining of extracellular matrix in RCS chondrocytes; assay type: cell-based, rat; conditions: FGF2 5 ng/ml, NF449 20 μM, 72 hours, FIG. 2a
# Description: as §1, §2
# [4] = system: FGF2/FGFR3-mediated growth-arrest of rat chondrosarcoma (RCS) cells; conditions: for effect on FGF2/FGFR3-mediated growth arrest (in words): FIGS. 1, 4c
# Source text: In this assay, the FGF2/FGFR3-mediated growth-arrest of rat chondrosarcoma (RCS) cells is used as a reporter, thus allowing for elimination of toxic compounds as false-positive hits (Krejci, et al., Invest New Drugs 2007, 25: 391-395).
# Rat chondrosarcoma chondrocytes (RCS), chinese hamster ovary (CHO) cells and MM cell lines OPM2 and KMS11 were propagated in DMEM, Opti-MEM or RPMI media (Gibco, Gaitherbsburg, Md.), supplemented with 10% fetal bovine serum (Atlanta Biological, Nordeross, Ga.) and antibiotics. […] For the RCS growth-arrest experiments shown at FIGS. 1 and 4c, 1×10^4 RCS chondrocytes were seeded in 24-well tissue culture plates (Costar, Cambridge, Mass.), treated as indicated for 72 hours, and counted. FGF2 was obtained from R&D Systems (Minneapolis, Minn.); C-natriuretic peptide, suramin, NF023 and NF449 were from Calbiochem (San Diego, Calif.).
# [5] = system: ERK MAP kinase phosphorylation in KMS11 and OPM2 cells; experiment: FGF2-mediated ERK MAP kinase phosphorylation by western blotting in MM cell lines; assay type: cell-based; conditions: NF449 one hour before FGF2, FIG. 3a
# Description: FIG. 3, in accordance with an embodiment herein, depicts 4,4′,4″,4′″-[carbonyl-bis[imino-5,1,3-benzenetriyl bis-{carbonylimino}]]tetrakis-{benzene-1,3-disulfonic acid} inhibits FGF2/FGFR3 signaling in MM cell lines OPM2 and KMS11. (a) KMS11 and OPM2 cells were serum-starved for 12 hours, treated with 4,4′,4″,4′″-[carbonyl-bis[imino-5,1,3-benzenetriyl bis-{carbonylimino}]]tetrakis-{benzene-1,3-disulfonic acid} for one hour before the treatment with FGF2 and the levels of ERK MAP kinase phosphorylation were determined by western blotting with the P-ERK1/2(Thr^202/Tyr^204) antibody. As a loading control, the membranes were reprobed with antibody recognizing ERK regardless of its phosphorylation. […] (b) The OPM2 cells were serum starved for 12 hours, pre-treated with 4,4′,4″,4′″-[carbonyl-bis[imino-5,1,3-benzenetriyl bis-{carbonylimino}]]tetrakis-{benzene-1,3-disulfonic acid} for one hour before FGF2 treatment, and analyzed for CCL3 and CCL4 expression by real-time RT-PCR as described herein. The results are expressed as the fold difference relative to control (2^ddCt). […]
# Since MM represents another area of pathological FGFR3 signaling in viva, the inventors evaluated whether NF449 inhibits FGFR3 signaling in KMS11 and OPM2 MM cell lines. […]
# [6] = listed as 4,4′,4″,4′″-[carbonyl-bis[imino-5,1,3-benzenetriyl bis-{carbonylimino}]]tetrakis
smiles,measurement,setting,value
"O=C(Nc1cc(C(=O)Nc2ccc(S(=O)(=O)O)cc2S(=O)(=O)O)cc(C(=O)Nc2ccc(S(=O)(=O)O)cc2S(=O)(=O)O)c1)Nc1cc(C(=O)Nc2ccc(S(=O)(=O)O)cc2S(=O)(=O)O)cc(C(=O)Nc2ccc(S(=O)(=O)O)cc2S(=O)(=O)O)c1 [NF449, 4,4′,4″,4′″-[carbonyl-bis[imino-5,1,3-benzenetriylbis-{carbonylimino}]]tetrakis-{benzene-1,3-disulfonic acid}]",FGF2-mediated inhibition of [35S]sulfate incorporation (loss of sulfated proteoglycans),[1],completely rescued
same,FGF2-mediated inhibition of [35S]sulfate incorporation (loss of sulfated proteoglycans),[1]; [6],reversed
same,limb growth and size,[2],greater limb growth and size
same,FGF2-induced cellular shape change,[3],rescued
same,"FGF2-mediated extracellular matrix loss, Alcian blue staining",[3],equaled that of the control cells
same,"FGF2-mediated extracellular matrix loss, Alcian blue staining",[3]; [6],reversed
same,rescue (reversal) of the growth-arrest phenotype,"[4]; 25 μM NF449, detailed cell-growth experiments, FIG. 1a, 72 hours",~70%
same,active concentration range in the RCS growth-arrest assay,"[4]; FGF2 5 ng/ml, 72 hours, FIG. 1a",8 to 30 µM
same,rescue of the FGF2-mediated RCS growth-arrest,"[4]; FIG. 1b, each agent alone, 72 hours",~50%
same,effect on FGF2/FGFR3-mediated growth arrest (in words),[4]; RCS chondrocytes,more potently that CNP
same,effect on FGF2/FGFR3-mediated growth arrest (in words),"[4]; RCS chondrocytes, listed as 4,4′,4″,4′″-[carbonyl-bis[imino-5,1,3-benzenetriyl bis-{carbonylimino}]]tetrakis",reversal of this phenotype
same,cell toxicity,"[4]; RCS chondrocytes, throughout active concentration range (8-30 μM), listed as 4,4′,4″,4′″-[carbonyl-bis[imino-5,1,3-benzenetriyl bis-{carbonylimino}]]tetrakis",lack of significant
same,concentration range inhibiting RCS growth arrest,[4]; comparison with SU5402,2 to 20 µM
same,FGF2-mediated Thr202/Tyr204 phosphorylation of ERK,[5],almost completely blocked
same,FGF2-mediated Thr202/Tyr204 phosphorylation of ERK,[5]; [6],inhibited
